Laboratory results from patent US20260070887A1 (Shenzhen Zhongge Biological Technology Co., Ltd., priority 2022, published 2026).
Like-named read-outs stand apart in the source and are kept apart here.

What was measured:
OVCAR-3 cells = assay: OVCAR-3 cell proliferation (Cell Titer-Glo, 10 days); format: cell-based, human
Procedure, shortened: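 IC50 was fitted by nonlinear regression of percent inhibition versus the 0.1% DMSO control. Luminescence was read with Cell Titer-Glo after 10 days of co-culture of logarithmic-phase cells (400/well) with compound at 0.12 nM–10 μM final, in medium with 20% fetal bovine serum and 0.01 mg/mL insulin.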

HT-29 cells = assay: HT-29 cell proliferation (Cell Titer-Glo, 6 days); format: cell-based
Procedure: The inhibitory effect on the KIF18A target by the compounds of the present disclosure was evaluated by testing the inhibitory effect on proliferation of HT-29 cells by the compounds of the present disclosure.
HT-29 (ATCC, HTB-38) cells were cultured in McCoy's 5a complete medium (Gibco, 12330-031) containing 10% fetal bovine serum (Gibco, 10099-141C), 100 U penicillin and […] streptomycin (Gibco, 15140-122). The Promega kit Cell Titer-Glo (Promega: G7572) was used in this method for test. • 1. HT-29 cells were cultured in T75 cell flasks (Corning, 430641) and the medium was placed in a 37° C., 5% CO2 incubator. Cells were passaged when reaching a cell density of 70%-80%, approximately twice per week. • 2. To perform the experiment, the test compounds were dissolved in DMSO to prepare a 10 mM stock solution, and the test compounds were added to the 384-well cell test plate (Corning, 3765) at the predetermined concentration using ECHO. • 3. The cell culture flask was taken out, the medium was removed, and the cells were rinsed with PBS. Then 2 mL of trypsin (with 0.25% EDTA) was added, and the flask was placed in the incubator for digestion for 4 minutes. • 4. Digestion was stopped by adding 4 mL of complete medium and the cell suspension was transferred to a centrifuge tube and centrifuged at 1000 rpm for 4 minutes. • 5. The cells were resuspended in 6 mL of complete medium, followed by cell counting. The cell density was adjusted to 4,170 cells/mL, and the cells were added to a 384-well plate at 60 μL/well. • 6. The 384-well plate was centrifuged at 500 rpm for 1 minute, and then placed in a 37° C., 5% CO2 incubator for 6 days of cultivation. • 7. Six days later, the cell culture plate was equilibrated for 10 minutes at room temperature, 25 μL of Cell Titer-Glo was added to each well, and the mixture was shaken and mixed well and let stand for 5 minutes. The luminescence values for samples in various wells were read using a microplate reader in Luminescence mode.
(§1) The percentage of inhibition of cell proliferation by the test compound at each concentration was calculated by comparing with the values of the control group (0.3% DMSO). The IC50 values of the compounds were obtained by concentration-inhibition rate nonlinear regression analysis of the test compounds using GraphPad Prism 9.

HCT116 cells = assay: HCT116 cell anti-proliferation assay; format: cell-based; conditions: 6 days, Cell Titer-Glo
Procedure: HCT116 (ATCC, CCL-247) cells were cultured in McCoy's 5a complete medium (Gibco, 12330-031) containing 10% fetal bovine serum (Gibco, 10099-141C), 100 U penicillin and 100 μg/mL streptomycin (Gibco, 15140-122). The Promega kit Cell Titer-Glo (Promega: G7572) was used in this method for test.
HCT116 cells were cultured in T75 cell flasks (Corning, 430641) and the cells were placed in a 37° C., 5% CO2 incubator. Cells were passaged when reaching a cell density of 70%-80%, approximately twice per week. To perform the experiment, the test compounds were dissolved in DMSO to prepare a 10 mM stock solution, and the test compounds were added to the 384-well cell test plate (Corning, 3765) at the predetermined concentration (19.5 nM-[…]) using ECHO. […] cells were digested and 150 cells (60 μL medium) were seeded per well in the test plate. The 384-well plate was then centrifuged at 500 rpm for 1 minute, and then placed in a 37° C., 5% CO2 incubator for 6 days of cultivation. Six days later, the cell culture plate was equilibrated for 10 minutes at room temperature, 25 μL of Cell Titer-Glo was added to each well, and the mixture was shaken and mixed well and let stand for 5 minutes. The luminescence values for samples in various wells were read using a microplate reader in Luminescence mode.
as §1, with “(0.2%” for “(0.3%”

Row | Structure (SMILES) | IC50 (OVCAR-3 cells; Homo sapiens, OVCAR-3, 240 h) [nM] | IC50 (HT-29 cells; Homo sapiens, HT-29, 144 h) [nM] | IC50 (HCT116 cells; Homo sapiens, HCT-116, 144 h) [nM] | IC50 (OVCAR-3 cells) [nM] | IC50 (HT-29 cells) [nM] | IC50 (HCT116 cells) [nM]
1 | CC1(C)Cn2c(cc3c(NC(=O)c4ccc(NS(=O)(=O)CCO)cc4N4CCC5(CC4)CC5)ccc(C#N)c32)CO1 [Compound 392, N-(6-cyano-3,3-dimethyl-3,4-dihydro-1H-[1,4]oxazino[4,3-a]indol-9-yl)-4-((2-hydroxyethyl)sulfonamido)-2-(6-azaspiro[2.5]oct-6-yl)benzamide] | ≤ 50 | ≤ 200 | > 10000 |  |  | 
2 | N#Cc1ccc(NC(=O)c2ccc(NS(=O)(=O)CCO)cc2N2CCC3(CC2)CC3)c2cc3n(c12)CCC(F)(F)C3 [Example 379] |  |  |  | ≤ 50 | ≤ 200 | 9800
3 | O=C(Nc1cccc2c1cc1n2CC2CCC1O2)c1ccc(NS(=O)(=O)CCO)cc1N1CCC(=C(F)F)CC1 (centres unmarked) [Compound 398, 2-(4-(difluoromethylene)piperidin-1-yl)-4-((2-hydroxyethyl)sulfonamido)-N-(7,8,9,10-tetrahydro-6H-7,10-epoxyazeto[1,2-a]indol-1-yl)benzamide] |  |  |  | ≤ 50 |  | > 10000
4 | O=C(Nc1cccc2c1cc1n2CCOC1)c1ccc(NS(=O)(=O)CCO)cc1N1CCC(=C(F)F)CC1 [Example 319, 2-(4-difluoromethylene)piperidin-1-yl-N-(3,4-dihydro-1H-[1,4]oxazino[4,3-a]indol-9-yl)-4-((2-hydroxyethyl)sulfonamide) benzamide] |  |  |  | ≤ 50 | 200 to 1000 | > 10000
5 | CC1(O)CCCn2c1cc1c(NC(=O)c3ccc(NS(=O)(=O)CCO)cc3N3CCC4(CC3)CC4)cccc12 (centres unmarked) [Example 372] |  |  |  | ≤ 50 | ≤ 200 | > 10000
6 | N#Cc1ccc(NC(=O)c2ccc(NS(=O)(=O)CCO)cc2N2CCC(=C(F)F)CC2)c2cc3n(c12)CCC(F)(F)C3 [Example 378] |  |  |  | ≤ 50 | ≤ 200 | > 10000
7 | N#Cc1ccc(NC(=O)c2ccc(NS(=O)(=O)CCO)cc2N2CCC3(CC2)CC3)c2cc3n(c12)CCOC3 [Example 310, N-(6-cyano-3,4-dihydro-1H-[1,4]oxazino[4,3-a]indol-9-yl)-4-((2-hydroxyethyl)sulfonamido)-2-(6-azaspiro[2.5]oct-6-yl)benzamide] | ≤ 50 | ≤ 200 | 9000 |  |  | 
8 | CC1Cn2c(cc3c(NC(=O)c4ccc(NS(=O)(=O)CCO)cc4N4CCC5(CC4)CC5)cccc32)C(C)O1 (single isomer, unassigned) [Compound 312-P3, N-(1,3-dimethyl-3,4-dihydro-1H-[1,4]oxazino[4,3-a]indol-9-yl)-4-((2-hydroxyethyl)sulfonamido)-2-(6-azaspiro[2.5]oct-6-yl)benzamide] |  |  | > 10000 | ≤ 50 | ≤ 200 | 
9 | COc1ccc(NC(=O)c2ccc(NS(=O)(=O)CCO)cc2N2CCC(=C(F)F)CC2)c2cc3n(c12)CC(C)(C)OC3 [Example 465, 2-(4-(difluoromethylene)piperidin-1-yl)-4-((2-hydroxyethyl)sulfonamido)-N-(6-methoxy-3,3-dimethyl-3,4-dihydro-1H-[1,4]oxazinyl[4,3-a]indol-9-yl)benzamide] |  |  |  | ≤ 50 | ≤ 200 | > 10000
10 | CC1(C)Cn2c(nc3c(NC(=O)c4ccc(NS(=O)(=O)CCO)cc4N4CCC(=C(F)F)CC4)cccc32)CO1 [Compound 394, 2-(4-(difluoromethylene)piperidin-1-yl)-N-(3,3-dimethyl-3,4-dihydro-1H-benzo[4,5]imidazo[2,1-c][1,4]oxazin-9-yl)-4-((2-hydroxyethyl)sulfonamido)benzamide] | ≤ 50 | ≤ 200 | > 10000 |  |  | 
11 | Nc1cc(NS(=O)(=O)CCO)cc(N2CCC3(CC2)CC3)c1C(=O)Nc1cccc(N2CCC(F)(F)CC2)c1 [Example 1, 2-amino-N-(3-(4,4-difluoropiperidin-1-yl)phenyl)-4-((2-hydroxyethyl)sulfonamide)-6-(6-azaspiro[2.5]octan-6-yl)benzamide] |  |  |  | ≤ 50 | ≤ 200 | 
12 | CC1(C)Cn2c(cc3c(NC(=O)c4ccc(NS(=O)(=O)CCO)cc4N4CCC5(CC4)CC5)ccc(OC(F)F)c32)CO1 [Example 523] |  |  |  | ≤ 50 |  | 
